A short description of series [1]: Highest frequency of moderate liver toxicity observed during clinical trials, expressed as a percentage. [column '% BIOL' in source]. Particulars: human.
The nature of series [2]: Highest frequency of acute liver toxicity observed during clinical trials, expressed as a percentage. [column '% AIGUE' in source]. Conditions: human.
A short description of series [3]: Times to onset, minimal and maximal, observed in the indexed observations. [column 'DELAI' in source]. Particulars: human.
Series [4] can be described thus: Proposed mechanism(s) of liver damage. [column 'MEC' in source]. Conditions: human.
The conditions of series [5]: human, serum.
The conditions of series [6]: human, serum. The source holds these as a separate data set.
For series [7] the following is noted: human.
For series [8] the following is noted: human. The source holds these as a separate data set.
The conditions of series [9]: human. This is another data set of the same source.
For series [10] the following is noted: human, serum, 4383 h.
For series [11] the following is noted: human. This is another data set of the same source.
For series [12] the following is noted: human. The source holds these as a separate data set.
The conditions of series [13]: human. The source holds these as a separate data set.
For series [14] the following is noted: human. This is another data set of the same source.
For series [15] the following is noted: human. This is another data set of the same source.
For series [16] the following is noted: human. The source holds these as a separate data set.

From ChEMBL document CHEMBL3137667, “[Drug-induced liver injury; fourteenth updated edition of the bibliographic database of liver injuries and related drugs]” (Gastroenterol Clin Biol, 2004) come the findings set out here.

Structures are written as SMILES.
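Wherever Hepatotoxicity (association with vascular disease) is given: count of indexed literature references reporting vascular liver injury in humans, e.g. peliosis hepatitis, hepatic veno-occlusive disease or Budd-Chiari syndrome.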
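Wherever Hepatotoxicity (benign tumour) is given: value is a count of indexed literature references citing a benign tumour confirmed by histopathology.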
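Wherever Hepatotoxicity (choleostasis) is given: human cholestatic liver injury, shown by histopathology or by peak ALT or AST elevation over alkaline phosphatase ratio below 2, value counts indexed literature reports.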
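Wherever Hepatotoxicity (chronic liver disease) is given: chronic liver injury confirmed by histopathology or persistently raised serum aminotransferase activity beyond 6 months, value given as the count of indexed literature references.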
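Wherever Hepatotoxicity (cirrhosis) is given: value is a count of indexed literature references reporting cirrhosis confirmed by histopathology.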
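Wherever Hepatotoxicity (cytolytic) is given: human cytolytic liver injury, shown by histopathology or by a ratio above 5 of peak ALT or AST elevation to alkaline phosphatase elevation, value counts indexed references.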
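Wherever Hepatotoxicity (granulomatous hepatitis) is given: value is a count of indexed literature references reporting granulomatous liver disease confirmed by histopathology.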
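Wherever Hepatotoxicity (malignant tumour) is given: malignant tumour confirmed by histopathology, value gives the count of indexed literature references reporting it.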
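Wherever Hepatotoxicity (severe hepatitis) is given: human clinical data: severe hepatitis, meaning potentially life-threatening liver failure or clinically observed cases, the value counts how many indexed literature references report it.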
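Wherever Hepatotoxicity (steatosis) is given: steatosis confirmed by histopathology, value is the count of indexed references.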

Regarding `COc1cnc(NS(=O)(=O)c2ccc(N)cc2)nc1`, the “Hepatotoxicity (moderate)” value in series [1] stood at 0%; in [5], 0. Besides, the “Hepatotoxicity (acute)” value in series [2] was determined as 0%; in [6] it was 2. The “Hepatotoxicity (time to onset)” value in [3] is listed as 10 days. The “Hepatotoxicity (mechanism)” value in [4] is “Allergic”. Further, the “Hepatotoxicity (cytolytic)” value in series [7] is 0. The “Hepatotoxicity (choleostasis)” value in series [8] worked out at 1. The “Hepatotoxicity (severe hepatitis)” value in [9] is recorded as 0. In addition, the “Hepatotoxicity (chronic liver disease)” value in series [10] was 0. In addition, the “Hepatotoxicity (cirrhosis)” value in [11] is 0. In addition, in [12], the “Hepatotoxicity (granulomatous hepatitis)” value is 0. Besides, the “Hepatotoxicity (association with vascular disease)” value in series [13] is reported as 0. The “Hepatotoxicity (steatosis)” value in series [14] is recorded as 0. Besides, in series [15], the “Hepatotoxicity (malignant tumour)” value stood at 0. Also, in series [16], the “Hepatotoxicity (benign tumour)” value is 0.
Turning to `CC(O)CCC(=O)c1ccoc1` (stereo not drawn), the “Hepatotoxicity (moderate)” value in series [1] came out at 0%; in series [5], 0. Further, the “Hepatotoxicity (acute)” value in series [2] came to 11.3%; in series [6], 1. In addition, in series [3], the “Hepatotoxicity (time to onset)” value is listed as 2 days - 8 days. In addition, the “Hepatotoxicity (mechanism)” value in [4] is given as “Dose-dependant”. In series [7], the “Hepatotoxicity (cytolytic)” value was determined as 0. Besides, the “Hepatotoxicity (choleostasis)” value in series [8] was determined as 0. Further, in series [9], the “Hepatotoxicity (severe hepatitis)” value is 1. Also, in [10], the “Hepatotoxicity (chronic liver disease)” value was determined as 0. In addition, the “Hepatotoxicity (cirrhosis)” value in [11] is recorded as 0. Moreover, the “Hepatotoxicity (granulomatous hepatitis)” value in series [12] is 0. In series [13], the “Hepatotoxicity (association with vascular disease)” value came out at 0. The “Hepatotoxicity (steatosis)” value in series [14] is 0. The “Hepatotoxicity (malignant tumour)” value in [15] is on record as 0. Also, the “Hepatotoxicity (benign tumour)” value in [16] came out at 0.
In the case of `O=C(O)c1ccccc1O.O=C(O)c1ccccc1O.O=C(O)c1ccccc1O`, the “Hepatotoxicity (moderate)” value in series [1] (Liver) came out at 0%; in series [5], 0. Besides, the “Hepatotoxicity (acute)” value in series [2] (Liver) was 0%; in series [6], 1. In addition, the “Hepatotoxicity (time to onset)” value in series [3] is 3 days. Besides, the “Hepatotoxicity (mechanism)” value in series [4] (Liver) is “Allergic”. The “Hepatotoxicity (cytolytic)” value in series [7] (Liver) is recorded as 1. Moreover, the “Hepatotoxicity (choleostasis)” value in [8] (Liver) amounted to 0. The “Hepatotoxicity (severe hepatitis)” value in series [9] (Liver) was 1. For the same compound, the “Hepatotoxicity (chronic liver disease)” value in [10] came out at 0. In series [11], the “Hepatotoxicity (cirrhosis)” value turned out to be 0. Further, the “Hepatotoxicity (granulomatous hepatitis)” value in series [12] (Liver) turned out to be 0. For the same compound, the “Hepatotoxicity (association with vascular disease)” value in series [13] is reported as 0. Besides, the “Hepatotoxicity (steatosis)” value in [14] is 0. Also, the “Hepatotoxicity (malignant tumour)” value in [15] was determined as 0. In addition, in series [16], the “Hepatotoxicity (benign tumour)” value is on record as 0.
Regarding `CNC=O`, the “Hepatotoxicity (moderate)” value in series [1] was determined as 75%; in series [5], 13. Moreover, the “Hepatotoxicity (acute)” value in series [2] is listed as 0%; in [6] it was 4. In addition, the “Hepatotoxicity (time to onset)” value in series [3] is given as 3 days - 1 week. For the same compound, in series [4], the “Hepatotoxicity (mechanism)” value is “Dose-dependant”. In series [7], the “Hepatotoxicity (cytolytic)” value is reported as 1. In series [8], the “Hepatotoxicity (choleostasis)” value was found to be 0. Further, the “Hepatotoxicity (severe hepatitis)” value in [9] came out at 2. In series [10], the “Hepatotoxicity (chronic liver disease)” value came to 0. The “Hepatotoxicity (cirrhosis)” value in series [11] stood at 0. Also, the “Hepatotoxicity (granulomatous hepatitis)” value in series [12] is 0. For the same compound, the “Hepatotoxicity (association with vascular disease)” value in [13] turned out to be 0. Also, in series [14], the “Hepatotoxicity (steatosis)” value is listed as 0. Also, in [15], the “Hepatotoxicity (malignant tumour)” value is 0. In series [16], the “Hepatotoxicity (benign tumour)” value worked out at 0.
Consider `CC(=O)Nc1cc([As](=O)(O)O)ccc1O` [ACETARSONE], for which the figures for the “Hepatotoxicity (moderate)” value in series [1] and in series [5] were 0% and 0, respectively. Also, the “Hepatotoxicity (acute)” value is 0% in series [2] and 2 in [6]. Also, the “Hepatotoxicity (time to onset)” value in [3] turned out to be 2 cures - 3 cures. Also, the “Hepatotoxicity (mechanism)” value in [4] is recorded as “Allergic”. Besides, in series [7], the “Hepatotoxicity (cytolytic)” value stood at 0. In addition, the “Hepatotoxicity (choleostasis)” value in [8] is on record as 0. Moreover, in [9], the “Hepatotoxicity (severe hepatitis)” value is on record as 0. Also, the “Hepatotoxicity (chronic liver disease)” value in [10] stood at 0. In [11], the “Hepatotoxicity (cirrhosis)” value worked out at 0. In series [12], the “Hepatotoxicity (granulomatous hepatitis)” value came to 0. Further, in series [13], the “Hepatotoxicity (association with vascular disease)” value was determined as 0. Further, the “Hepatotoxicity (steatosis)” value in [14] is 0. Further, in series [15], the “Hepatotoxicity (malignant tumour)” value is 0. In series [16], the “Hepatotoxicity (benign tumour)” value was determined as 0.
On to `CC(=O)c1ccc(S(=O)(=O)NC(=O)NC2CCCCC2)cc1` [ACETOHEXAMIDE], for which the “Hepatotoxicity (moderate)” value in series [1] was 0%; in series [5], 0. Moreover, the “Hepatotoxicity (acute)” value in series [2] was found to be 0%; in [6], 6. Further, the “Hepatotoxicity (time to onset)” value in series [3] stood at 3 weeks - 17 months. For the same compound, in [4], the “Hepatotoxicity (mechanism)” value was “Dose-dependant”. In series [7], the “Hepatotoxicity (cytolytic)” value stood at 2. For the same compound, the “Hepatotoxicity (choleostasis)” value in [8] worked out at 0. Also, in series [9], the “Hepatotoxicity (severe hepatitis)” value is 0. The “Hepatotoxicity (chronic liver disease)” value in series [10] is 0. In addition, the “Hepatotoxicity (cirrhosis)” value in [11] is reported as 1. The “Hepatotoxicity (granulomatous hepatitis)” value in series [12] is given as 0. In addition, the “Hepatotoxicity (association with vascular disease)” value in [13] amounted to 0. The “Hepatotoxicity (steatosis)” value in series [14] is recorded as 0. The “Hepatotoxicity (malignant tumour)” value in series [15] amounted to 0. The “Hepatotoxicity (benign tumour)” value in series [16] was found to be 0.
With `CCCCN1CCCCC1C(=O)Nc1c(C)cccc1C` (stereo not drawn) [BUPIVACAINE], the “Hepatotoxicity (moderate)” value in series [1] came to 0%; in [5], 0. Further, the “Hepatotoxicity (acute)” value in series [2] stood at 0%; in series [6] it was 2. Moreover, the “Hepatotoxicity (time to onset)” value in [3] is 2 weeks - 1 month. Besides, in series [4], the “Hepatotoxicity (mechanism)” value was “Allergic”. Moreover, in [7], the “Hepatotoxicity (cytolytic)” value was determined as 1. In addition, in [8], the “Hepatotoxicity (choleostasis)” value was 2. The “Hepatotoxicity (severe hepatitis)” value in series [9] is 0. The “Hepatotoxicity (chronic liver disease)” value in series [10] came to 0. Further, the “Hepatotoxicity (cirrhosis)” value in series [11] is given as 0. Also, the “Hepatotoxicity (granulomatous hepatitis)” value in series [12] is 0. Moreover, in series [13], the “Hepatotoxicity (association with vascular disease)” value is listed as 0. Further, the “Hepatotoxicity (steatosis)” value in [14] stood at 0. For the same compound, in series [15], the “Hepatotoxicity (malignant tumour)” value was 0. The “Hepatotoxicity (benign tumour)” value in [16] came to 0.
As to `CC12CCC(CC1=O)C2(C)C` (stereo not drawn) [CAMPHOR], the “Hepatotoxicity (moderate)” value in series [1] is listed as 0%; in series [5], 0. The figures for the “Hepatotoxicity (acute)” value in series [2] and in series [6] were 0% and 1, respectively. Besides, in [3], the “Hepatotoxicity (time to onset)” value is given as 3 days. In addition, the “Hepatotoxicity (mechanism)” value in series [4] is on record as “Dose-dependant”. The “Hepatotoxicity (cytolytic)” value in series [7] turned out to be 1. In addition, the “Hepatotoxicity (choleostasis)” value in series [8] worked out at 0. Further, in series [9], the “Hepatotoxicity (severe hepatitis)” value worked out at 0. Further, the “Hepatotoxicity (chronic liver disease)” value in [10] is 0. Further, the “Hepatotoxicity (cirrhosis)” value in series [11] is given as 0. For the same compound, the “Hepatotoxicity (granulomatous hepatitis)” value in series [12] was 0. Besides, the “Hepatotoxicity (association with vascular disease)” value in series [13] was 0. Also, the “Hepatotoxicity (steatosis)” value in series [14] stood at 0. Moreover, in [15], the “Hepatotoxicity (malignant tumour)” value turned out to be 0. The “Hepatotoxicity (benign tumour)” value in series [16] amounted to 0.
